The values below come from PubChem BioAssay (NCI).

The structures appear in SMILES notation. Values joined by “and” are separate entries in the source; they are usually repeats but may differ in a detail not shown here. Equal values may be shown once.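 Following 48 hours of exposure in 96-well plates, responses at five concentrations were used to interpolate endpoints linearly. GI50 marks 50% less growth. TGI: total growth inhibition.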

What all share (test): NCI tumour cell line growth inhibition, 48 h
The subject of assay [1] is DLD-1 colon.
Assay [2] concerns DMS 114 small cell lung.
Assay [3] concerns HCT-116 colon.
In assay [4] the test system is HOP-18 NSCLC.
Assay [5] deals with LOX IMVI melanoma.
In assay [6] the test system is M19-MEL melanoma.
In assay [7] the test system is MALME-3M melanoma.
In assay [8] the test system is OVCAR-4 ovarian.
Assay [9] has as its system OVCAR-5 ovarian.
In assay [10] the test system is SF-268 CNS.
The subject of assay [11] is SK-MEL-28 melanoma.
Assay [12] deals with MDA-N.
In assay [13] the test system is MDA-MB-231 breast.

Regarding `CCCc1ccc(NCc2cc(OC)c(OC)c(OC)c2)cc1`, the TGI in assay [1] was 48.1 µM; in assay [2] it was 29.8 µM; in assay [3] it was 48.3 µM; in assay [4], over 100 µM; in [5], 30.7 µM; in assay [6], 44.6 µM. Moreover, the TGI is 50.4 µM in [7]; over 100 µM in assay [8]; over 100 µM in assay [9]; 79.2 µM in assay [10]; 73.9 µM in assay [11].

Take `[N-]=[N+]=C1C(=O)C2CC3CC(C2)CC1C3`: the TGI in assay [1], in assay [2], in [3], in assay [4], in assay [5] and in assay [6] was over 100 µM throughout. Besides, the TGI in [7], in assay [8], in assay [9], in assay [10] and in assay [11] was over 100 µM throughout.

For the compound `COc1cc(/C=C(/C#N)C(N)=O)ccc1O`, the TGI in assay [1], in assay [2], in assay [3], in assay [4], in assay [5] and in assay [6] was over 100 µM in each case. In addition, the TGI in [7], in assay [8], in assay [9], in [10] and in [11] was over 100 µM each time.

As to `CC(NC(C)(C)C)C(=O)c1cccc(Cl)c1` (stereo not given), the TGI in [1], in assay [2], in [3], in assay [5], in assay [6] and in assay [7] was over 100 µM in each case. The TGI in [8], in assay [10] and in [11] was over 100 µM in each case.

For the compound `N#C/C(=C\c1c[nH]c2ccccc12)C(=O)c1ccc(O)c(O)c1`, the TGI was over 100 µM in assay [1]; over 84.8 µM in assay [3]; 93.5 µM in [4]; over 100 µM in assay [5]; over 100 µM in [6]; over 78.8 µM in [7]. For the same compound, the TGI in [12], in assay [8], in [9], in assay [10] and in [11] was over 100 µM throughout.

For `COc1cc2c(cc1OC)C1(c3ccc(Cl)cc3)ON=C(c3ccccc3)N1CS2` (stereo not given), the TGI in assay [1], in assay [2], in assay [3], in [4], in [5] and in assay [6] was over 100 µM each time. The TGI in assay [7], in assay [8], in assay [9], in [10] and in assay [11] was over 100 µM each time.

As to `CCOC(=O)CSc1nnc(C(Sc2nc(-c3ccccc3)c(-c3ccccc3)[nH]2)C(C)C)n1-c1ccccc1` (stereo not given), the TGI in assay [1] was over 10 µM; in [2], over 10 µM; in [3], over 31.6 µM; in assay [5], 19.9 µM; in assay [6], over 10 µM; in assay [7] it was 28.3 µM. Moreover, the TGI in assay [13] is 64.1 µM; in assay [12], over 100 µM; in assay [8], 28.5 µM; in [9], 28.5 µM; in assay [10] it was over 31.6 µM; in assay [11] it was 29 µM.

`COC(=O)CC1NC(=O)C1C1(C)OCCO1` (stereo not given): the TGI in [1], in assay [2], in assay [3], in assay [5], in [6] and in [7] was over 100 µM in each case. Also, the TGI in assay [8], in [10] and in assay [11] was over 100 µM throughout.

Take `COc1cc(-c2cc(-c3cc([N+](=O)[O-])c(/C=N/NC(=O)c4ccncc4)o3)ccc2OC)ccc1C`: the TGI in assay [1], in [5], in assay [6], in assay [7], in [8] and in assay [9] was over 100 µM throughout. Besides, the TGI in assay [10] and in assay [11] was over 100 µM in each case.

Consider `Brc1ccc(-c2cn3ccncc3n2)cc1`, for which the TGI in assay [3], in [5], in assay [7], in assay [13], in [12] and in assay [8] was over 100 µM in each case. In addition, the TGI in [9], in [10] and in [11] was over 100 µM in each case.

For the compound `COC(=O)c1c(O)ccc2c1C1(Cc3ccccc3C1=O)C(O)O2` (stereo not given), the TGI is 32.6 µM in assay [3]; over 100 µM in assay [5]; 71.4 µM in [7]; 52.1 µM in assay [13]; 28.7 µM in assay [12]; 35.8 µM in [8]. Moreover, the TGI was 51.7 µM in assay [9], 51.6 µM in assay [10] and over 100 µM in [11].

For `Cc1ccc(/C=C2\CCCC(CN3CCCCC3)C2=O)cc1` (stereo not given), the TGI in [3] amounted to 3.26 µM; in assay [5], 3.29 µM; in assay [7], 5.98 µM; in assay [13] it was 3.34 µM; in assay [12], 7.78 µM; in [8], 3.62 µM. In addition, the TGI in [9] stood at 28.7 µM; in assay [10], 4.07 µM; in [11], 3.22 µM.

For `CCN(CC)CCNCc1cc(Cl)cc2c1OCOC2`, the TGI in [3], in assay [5], in assay [7], in assay [13], in [12] and in [8] was over 10 µM each time. Moreover, the TGI in assay [9], in assay [10] and in assay [11] was over 10 µM throughout.

As for `CC(C)[C@@H]1ON1C(C)c1ccccc1` (stereo not given in full), the TGI in assay [3], in [5], in assay [7], in [13], in assay [12] and in assay [8] was over 100 µM each time. Besides, the TGI in [9], in assay [10] and in [11] was over 100 µM throughout.

`CC(C)(CC(O)C#N)/[N+]([O-])=[N+](\[O-])C(C)(C)CC(O)C#N` (stereo not given): the TGI came to 32.7 µM in assay [3]; 42.7 µM in [5]; 54.2 µM in assay [7]; 62.8 µM in [13]; 59.5 µM in assay [12]; 81 µM in [8]. Further, the figures for the TGI in assay [9], in [10] and in assay [11] were 97.2 µM, 83.1 µM and over 100 µM, respectively.

On to `FC(F)(F)c1ccc2nc(Sc3ccccn3)cnc2c1`, for which the TGI in [3], in assay [5], in [7], in assay [13], in assay [12] and in [8] was over 100 µM in each case. Further, the TGI in assay [9], in assay [10] and in [11] was over 100 µM in each case.

As to `Cc1ccc(N=Nc2c(O)c(C(=O)Nc3ccccc3)cc3ccccc23)c([N+](=O)[O-])c1`, the TGI in assay [3], in assay [5], in assay [7], in assay [13], in assay [12] and in assay [8] was over 100 µM throughout. The TGI in [9], in assay [10] and in assay [11] was over 100 µM throughout.

Take `CCOP(=O)(OCC)C(C)(CC)NC` (stereo not given): the TGI in [3], in assay [5], in [7], in assay [13], in assay [12] and in [8] was over 100 µM in each case. For the same compound, the TGI in assay [9], in assay [10] and in [11] was over 100 µM throughout.

Take `CC(C)CN=C(N)N=C(N)N`: the TGI in assay [3], in assay [5], in assay [7], in assay [13], in assay [12] and in assay [8] was over 100 µM in each case. The TGI in assay [9], in assay [10] and in assay [11] was over 100 µM throughout.

As to `C/C1=C\[C@@H](O)C(=O)/C=C/C=C\c2csc(n2)[C@@H](C)NC(=O)C[C@@]2(CC1)S(=O)SC(=O)[C@]2(C)O` (stereo not given in full), the TGI in [1] is 0.213 µM and 0.0233 µM; in assay [2], 0.169 µM and 0.022 µM; in [3], 0.0259 µM; in [4], 0.178 µM; in [5], 0.0605 µM; in [7], 0.025 µM. Moreover, the TGI in [13] is 0.265 µM; in assay [8], 0.0793 µM; in assay [9], 0.699 µM and 0.145 µM; in assay [10], 0.285 µM and 0.06 µM; in [11] it was 0.0727 µM and 0.0168 µM. Further, the GI50 is 0.0045 µM in [3] and 0.0169 µM in [9].

Take `CCC(c1c[nH]c2ccc(Br)cc12)c1c[nH]c2ccc(Br)cc12`: the TGI came out at 15.1 µM in assay [3]; 6.66 µM in assay [5]; 24.9 µM in [7]; 25.4 µM in [13]; 16 µM in [12]; 8.11 µM in [8]. For the same compound, the TGI came out at 16.6 µM in assay [9], 20.7 µM in assay [10] and 25.4 µM in assay [11].
